Laboratory results: patent US20220213092A1, “BICYCLIC PYRAZOLE BRUTON'S TYROSINE KINASE INHIBITORS” (AbbVie Inc., priority 2020, published 2022)

Assays:
[1] = target: T1, Phosphorylation of Y223 of BTK (Homo sapiens, UniProt Q06187); assay: Whole blood compound screening, phosphorylation of Y223 site of BTK (MSD assay); type: cell-based; conditions: healthy human whole blood, 2 hours at 37° C., 3 separate donors; read-out: WB BTK-pY223 EC50
T1 construct: host or cells: healthy human whole blood, 3 donors
T1 sequence (Q06187 whole entry): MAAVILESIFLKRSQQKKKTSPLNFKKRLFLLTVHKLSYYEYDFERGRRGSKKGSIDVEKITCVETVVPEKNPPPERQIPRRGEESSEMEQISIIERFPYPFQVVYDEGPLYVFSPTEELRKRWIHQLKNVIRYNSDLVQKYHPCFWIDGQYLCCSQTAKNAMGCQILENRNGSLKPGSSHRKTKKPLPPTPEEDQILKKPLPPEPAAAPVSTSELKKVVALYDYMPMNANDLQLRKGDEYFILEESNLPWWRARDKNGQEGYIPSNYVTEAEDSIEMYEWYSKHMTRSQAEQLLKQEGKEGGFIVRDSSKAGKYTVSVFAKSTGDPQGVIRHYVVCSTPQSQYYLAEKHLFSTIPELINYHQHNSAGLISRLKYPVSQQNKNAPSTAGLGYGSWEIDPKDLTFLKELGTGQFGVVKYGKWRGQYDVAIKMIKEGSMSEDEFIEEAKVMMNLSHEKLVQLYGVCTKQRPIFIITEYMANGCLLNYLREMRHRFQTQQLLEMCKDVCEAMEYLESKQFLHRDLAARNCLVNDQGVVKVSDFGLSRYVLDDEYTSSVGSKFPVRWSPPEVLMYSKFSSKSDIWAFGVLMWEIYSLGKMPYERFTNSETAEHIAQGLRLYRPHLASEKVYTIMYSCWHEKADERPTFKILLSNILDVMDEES
Experimental: Healthy human whole blood (WB) was collected from […]™ Technologies or […]® in sodium heparinized tubes. Whole blood was stored at ambient temperature to avoid coagulation. Each compound was tested in 3 separate donors. Compound stock solutions (10 mM) were used to generate dose titration (8 concentrations, starting concentration 10 μM, 1:4 dilution) in appropriate volume of dimethyl sulfoxide (0.2%). Whole blood was incubated with compounds in 96-well plates for 2 hours in tissue culture incubators at 37° C. under a 5% CO2 atmosphere. The whole blood was lysed in equal volume of lysis buffer (Cell Signaling Technology®, Danvers, Mass.) containing complete protease inhibitor tablet, PhosSTOP™ tablet, sodium orthovanadate and sodium fluoride and phenylmethanesulfonyl fluoride solution. The lysed whole blood was then frozen at −80° C. for overnight.
Phosphorylation of Y223 of BTK was measured using an MSD assay (Meso Scale Diagnostics, LLC, Rockville, Md.). The thawed lysed whole blood was incubated with the capturing antibody rabbit anti-human BTK (D3H5) (Cell Signaling Technology, Danvers, Mass.) at 4° C. overnight. After washing out the unbound samples, the detection antibody biotinylated rabbit anti-pY223-BTK(D9T6H) (Cell Signaling Technology®, Danvers, Mass.) was added to the plates. After washing out the unbound antibodies, SULFO-TAG Streptavidin (Meso Scale Diagnostics, LLC, Rockville, Md.) was used for detection on Meso Sector S600 (Meso Scale Diagnostics, LLC, Rockville, Md.).
The EC50 values were determined using software from Dotmatics. The activity of exemplary compounds is illustrated below.

BTK = target: T2, BTK (Homo sapiens, UniProt Q06187); assay: BTK kinase electrophoretic mobility shift assay (MSA); type: biochemical; conditions: 50 μM ATP, 0.5 nM BTK enzyme (Nanosyn-293HEK, WT), 3 hours at 25° C.; all examples except 50, 51, 62 and 63; read-out: BTK IC50
T2 construct: purchased Nanosyn, Santa Clara, Calif; host or cells: 293HEK
T2 sequence (Q06187 whole entry): as above

EC50 [1] [nM] | IC50 (BTK) [nM] | Compound
29.2 | 2.18 | C=CC(=O)N1CCN([C@@H]2CCNc3c2nn(-c2ccc(Oc4ccccc4C#N)cc2)c3C(N)=O)CC1 [Example 69, (7R)-2-[4-(2-cyanophenoxy)phenyl]-7-[4-(prop-2-enoyl)piperazin-1-yl]-4,5,6,7-tetrahydro-2H-pyrazolo[4,3-b]pyridine-3-carboxamide]
239 | 7.09 | C=CC(=O)N1CCN([C@@H]2CCNc3c2nn(-c2ccc(Oc4ccc(F)cc4F)cc2)c3C(N)=O)CC1 [Example 70, (7R)-2-[4-(2,4-difluorophenoxy)phenyl]-7-[4-(prop-2-enoyl)piperazin-1-yl]-4,5,6,7-tetrahydro-2H-pyrazolo[4,3-b]pyridine-3-carboxamide]
279 | 22.8 | C=CC(=O)N1CCN([C@@H]2CCNc3c2nn(-c2ccc(Oc4ccc(F)cc4)cc2)c3C(N)=O)CC1 [Example 71, (7R)-2-[4-(4-fluorophenoxy)phenyl]-7-[4-(prop-2-enoyl)piperazin-1-yl]-4,5,6,7-tetrahydro-2H-pyrazolo[4,3-b]pyridine-3-carboxamide]
21.7 | 7.84 | C=CC(=O)N1C2CC1CN([C@H]1CCNc3c1nn(-c1ccc(Oc4ccccc4)cc1)c3C(N)=O)C2 [Example 72, (7S)-2-(4-phenoxyphenyl)-7-[6-(prop-2-enoyl)-3,6-diazabicyclo[3.1.1]heptan-3-yl]-4,5,6,7-tetrahydro-2H-pyrazolo[4,3-b]pyridine-3-carboxamide]
255 | 15.7 | C=CC(=O)N1C2CC1CN([C@@H]1CCNc3c1nn(-c1ccc(Oc4ccccc4)cc1)c3C(N)=O)C2 [Example 73, (7R)-2-(4-phenoxyphenyl)-7-[6-(prop-2-enoyl)-3,6-diazabicyclo[3.1.1]heptan-3-yl]-4,5,6,7-tetrahydro-2H-pyrazolo[4,3-b]pyridine-3-carboxamide]
56 | 1.51 | C=CC(=O)N1CCN([C@@H]2CCNc3c2nn(-c2ccc(Oc4cc(F)ccc4F)cc2)c3C(N)=O)CC1 [Example 74, (7R)-2-[4-(2,5-difluorophenoxy)phenyl]-7-[4-(prop-2-enoyl)piperazin-1-yl]-4,5,6,7-tetrahydro-2H-pyrazolo[4,3-b]pyridine-3-carboxamide]
61 | 1.14 | C=CC(=O)N1CC(N2CCNc3c2nn(-c2ccc(Oc4ccccc4F)cc2)c3C(N)=O)C1 [Example 75, 2-[4-(2-fluorophenoxy)phenyl]-7-[1-(prop-2-enoyl)azetidin-3-yl]-4,5,6,7-tetrahydro-2H-pyrazolo[3,4-b]pyrazine-3-carboxamide]
85.5 | 0.968 | C=CC(=O)N1CC(N2CCNc3c2nn(-c2ccc(Oc4cccc(F)c4F)cc2)c3C(N)=O)C1 [Example 76, 2-[4-(2,3-difluorophenoxy)phenyl]-7-[1-(prop-2-enoyl)azetidin-3-yl]-4,5,6,7-tetrahydro-2H-pyrazolo[3,4-b]pyrazine-3-carboxamide]
31.5 | 0.533 | C=CC(=O)N1CCN([C@@H]2CCNc3c2nn(-c2ccc(Oc4cccc(F)c4F)cc2)c3C(N)=O)CC1 [Example 77, (7R)-2-[4-(2,3-difluorophenoxy)phenyl]-7-[4-(prop-2-enoyl)piperazin-1-yl]-4,5,6,7-tetrahydro-2H-pyrazolo[4,3-b]pyridine-3-carboxamide]
57.9 | 0.671 | C=CC(=O)N1CCN([C@@H]2CCNc3c2nn(-c2ccc(Oc4cccc(C5CC5)c4)cc2)c3C(N)=O)CC1 [Example 78, (7R)-2-[4-(3-cyclopropylphenoxy)phenyl]-7-[4-(prop-2-enoyl)piperazin-1-yl]-4,5,6,7-tetrahydro-2H-pyrazolo[4,3-b]pyridine-3-carboxamide]
75.1 | 5.24 | C=CC(=O)N1CC(N2CCNc3c2nn(-c2ccc(Oc4ccc(F)cc4F)cc2)c3C(N)=O)C1 [Example 81, 2-[4-(2,4-difluorophenoxy)phenyl]-7-[1-(prop-2-enoyl)azetidin-3-yl]-4,5,6,7-tetrahydro-2H-pyrazolo[3,4-b]pyrazine-3-carboxamide]
